System: participants with SSc-RP
Experiment: Frequency of weekly symptomatic RP attacks (patient diary), Phase 2a Part A
Format: in vivo, human
Conditions: ITT Part A
Excerpt: Percent change from baseline evaluation for frequency of weekly RP attacks were or will be used as the primary efficacy variable. The sponsor-developed participant-informed diary will be used to record data. Frequency of weekly RP attacks is defined as the total number of RP attacks divided by the number of days with available diary data within the last 7 days of each dosing period then multiplied by 7. Total number of RP attacks during the last 7 days of screening period divided by the number of days with available data then multiplied by 7 will be used as baseline for the analysis of all periods. The variable will be calculated as follows: […]
Percent change from baseline evaluation for frequency of weekly RP attacks was and will be the primary efficacy endpoint. Frequency of weekly RP attacks is defined as the total number of RP attacks divided by the number of days with available diary data within the last 7 days of each dosing period then multiplied by 7. Total number of RP attacks during the last 7 days of screening period divided by the number of days with available data then multiplied by 7 will be used as baseline for the analysis of all periods.

[1] = Cilnidipine 10 mg, n=1, Excluding Outliers
[2] = Cilnidipine 10 mg, n=1, by Baseline RCS, first block (RCS <5.0)
[3] = Cilnidipine 20 mg, n=2, Excluding Outliers
[4] = Cilnidipine 20 mg, n=2, by Baseline RCS, first block (RCS <5.0)
[5] = Pooled Cilnidipine 10 mg and Cilnidipine 10 mg + Tadalafil 5 mg, n=1, by Baseline RCS, second block (RCS >5.0)
[6] = Pooled Cilnidipine 10 mg and Cilnidipine 10 mg + Tadalafil 5 mg, n=2, by Baseline RCS, first block (RCS <5.0)
[7] = Pooled Cilnidipine 10 mg and Cilnidipine 10 mg + Tadalafil 5 mg, n=3
[8] = Pooled Cilnidipine 10 mg and Cilnidipine 10 mg + Tadalafil 5 mg, n=3, Excluding Outliers
[9] = Pooled Cilnidipine 10 mg and Cilnidipine 10 mg + Tadalafil 5 mg, n=1, excluding outliers, second Baseline RCS subgroup, last 7 days of dosing
[10] = Pooled Cilnidipine 10 mg and Cilnidipine 10 mg + Tadalafil 5 mg, n=2, excluding outliers, first Baseline RCS subgroup, last 7 days of dosing
[11] = Pooled Cilnidipine 20 mg and Cilnidipine 20 mg + Tadalafil 5 mg, n=1, by Baseline RCS, second block (RCS >5.0)
[12] = Pooled Cilnidipine 20 mg and Cilnidipine 20 mg + Tadalafil 5 mg, n=3, by Baseline RCS, first block (RCS <5.0)
[13] = Pooled Cilnidipine 20 mg and Cilnidipine 20 mg + Tadalafil 5 mg, n=4
[14] = Pooled Cilnidipine 20 mg and Cilnidipine 20 mg + Tadalafil 5 mg, n=4, Excluding Outliers
[15] = Pooled Cilnidipine 20 mg and Cilnidipine 20 mg + Tadalafil 5 mg, n=1, excluding outliers, second Baseline RCS subgroup, last 7 days of dosing
[16] = Pooled Cilnidipine 20 mg and Cilnidipine 20 mg + Tadalafil 5 mg, n=3, excluding outliers, first Baseline RCS subgroup, last 7 days of dosing
[17] = Pooled Cilnidipine (10 or 20 mg), n=3
[18] = Pooled Cilnidipine (10 or 20 mg), n=3, Excluding Outliers
[19] = Pooled Cilnidipine (10 or 20 mg), n=3, by Baseline RCS, first block (RCS <5.0)
[20] = Pooled Cilnidipine arms, n=3, excluding outliers, first Baseline RCS subgroup, last 7 days of dosing
[21] = cilnidipine 10 mg daily, n=1, excluding outliers, first Baseline RCS subgroup, last 7 days of dosing
[22] = cilnidipine 20 mg daily, n=2, excluding outliers, first Baseline RCS subgroup, last 7 days of dosing

COCCOC(=O)C1=C(C)NC(C)=C(C(=O)OC/C=C/c2ccccc2)C1c1cccc([N+](=O)[O-])c1 (centres unmarked) [Cilnidipine]
Weekly Symptomatic RP Attacks Change from Baseline, Mean (Cilnidipine 10 mg, n=1): −7.00 | Weekly Symptomatic RP Attacks Change from Baseline, Median (Cilnidipine 10 mg, n=1): −7.00 | Weekly Symptomatic RP Attacks Percent Change from Baseline, Mean (Cilnidipine 10 mg, n=1): −33.33% | Weekly Symptomatic RP Attacks Percent Change from Baseline, Median (Cilnidipine 10 mg, n=1): −33.33% | Weekly Symptomatic RP Attacks, Mean (Cilnidipine 10 mg, n=1): 14.00 | Weekly Symptomatic RP Attacks, Median (Cilnidipine 10 mg, n=1): 14.00 | Weekly Symptomatic RP Attacks Change from Baseline, Mean [1]: −7.00 | Weekly Symptomatic RP Attacks Change from Baseline, Median [1]: −7.00 | Weekly Symptomatic RP Attacks Percent Change from Baseline, Mean [1]: −33.33% | Weekly Symptomatic RP Attacks Percent Change from Baseline, Median [1]: −33.33% | Weekly Symptomatic RP Attacks, Mean [1]: 14.00 | Weekly Symptomatic RP Attacks, Median [1]: 14.00 | Weekly Symptomatic RP Attacks Change from Baseline, Mean [2]: −7.00 | Weekly Symptomatic RP Attacks Change from Baseline, Median [2]: −7.00 | Weekly Symptomatic RP Attacks Percent Change from Baseline, Mean [2]: −33.33% | Weekly Symptomatic RP Attacks Percent Change from Baseline, Median [2]: −33.33% | Weekly Symptomatic RP Attacks, Mean [2]: 14.00 | Weekly Symptomatic RP Attacks, Median [2]: 14.00 | Weekly Symptomatic RP Attacks Change from Baseline, Mean (Cilnidipine 20 mg, n=2): −4.50 | Weekly Symptomatic RP Attacks Change from Baseline, Median (Cilnidipine 20 mg, n=2): −4.50 | Weekly Symptomatic RP Attacks Percent Change from Baseline, Mean (Cilnidipine 20 mg, n=2): −33.73% | Weekly Symptomatic RP Attacks Percent Change from Baseline, Median (Cilnidipine 20 mg, n=2): −33.73% | Weekly Symptomatic RP Attacks, Mean (Cilnidipine 20 mg, n=2): 8.00 | Weekly Symptomatic RP Attacks, Median (Cilnidipine 20 mg, n=2): 8.00 | Weekly Symptomatic RP Attacks Change from Baseline, Mean [3]: −4.50 | Weekly Symptomatic RP Attacks Change from Baseline, Median [3]: −4.50 | Weekly Symptomatic RP Attacks Percent Change from Baseline, Median [3]: −33.73% | Weekly Symptomatic RP Attacks, Mean [3]: 8.00 | Weekly Symptomatic RP Attacks, Median [3]: 8.00 | Weekly Symptomatic RP Attacks Change from Baseline, Mean [4]: −4.50 | Weekly Symptomatic RP Attacks Change from Baseline, Median [4]: −4.50 | Weekly Symptomatic RP Attacks Percent Change from Baseline, Mean [4]: −33.73% | Weekly Symptomatic RP Attacks Percent Change from Baseline, Median [4]: −33.73% | Weekly Symptomatic RP Attacks, Mean [4]: 8.00 | Weekly Symptomatic RP Attacks, Median [4]: 8.00 | Weekly Symptomatic RP Attacks Change from Baseline, Mean [5]: −3.00 | Weekly Symptomatic RP Attacks Change from Baseline, Median [5]: −3.00 | Weekly Symptomatic RP Attacks Percent Change from Baseline, Mean [5]: −42.86% | Weekly Symptomatic RP Attacks Percent Change from Baseline, Median [5]: −42.86% | Weekly Symptomatic RP Attacks, Mean [5]: 4.00 | Weekly Symptomatic RP Attacks, Median [5]: 4.00 | Weekly Symptomatic RP Attacks Change from Baseline, Mean [6]: −5.50 | Weekly Symptomatic RP Attacks Change from Baseline, Median [6]: −5.50 | Weekly Symptomatic RP Attacks Percent Change from Baseline, Mean [6]: −38.89% | Weekly Symptomatic RP Attacks Percent Change from Baseline, Median [6]: −38.89% | Weekly Symptomatic RP Attacks, Mean [6]: 9.50 | Weekly Symptomatic RP Attacks, Median [6]: 9.50 | Weekly Symptomatic RP Attacks Change from Baseline, Mean [7]: −4.67 | Weekly Symptomatic RP Attacks Change from Baseline, Median [7]: −4.00 | Weekly Symptomatic RP Attacks Percent Change from Baseline, Mean [7]: −40.21% | Weekly Symptomatic RP Attacks Percent Change from Baseline, Median [7]: −42.86% | Weekly Symptomatic RP Attacks, Mean [7]: 7.67 | Weekly Symptomatic RP Attacks, Median [7]: 5.00 | Weekly Symptomatic RP Attacks Change from Baseline, Mean [8]: −4.67 | Weekly Symptomatic RP Attacks Change from Baseline, Median [8]: −4.00 | Weekly Symptomatic RP Attacks Percent Change from Baseline, Mean [8]: −40.21% | Weekly Symptomatic RP Attacks Percent Change from Baseline, Median [8]: −42.86% | Weekly Symptomatic RP Attacks, Mean [8]: 7.67 | Weekly Symptomatic RP Attacks, Median [8]: 5.00 | Weekly Symptomatic RP Attacks Change from Baseline, Mean [9]: −3.00 | Weekly Symptomatic RP Attacks Change from Baseline, Median [9]: −3.00 | Weekly Symptomatic RP Attacks Percent Change from Baseline, Mean [9]: −42.86% | Weekly Symptomatic RP Attacks Percent Change from Baseline, Median [9]: −42.86% | Weekly Symptomatic RP Attacks, Mean [9]: 4.00 | Weekly Symptomatic RP Attacks, Median [9]: 4.00 | Weekly Symptomatic RP Attacks Change from Baseline, Mean [10]: −5.50 | Weekly Symptomatic RP Attacks Change from Baseline, Median [10]: −5.50 | Weekly Symptomatic RP Attacks Percent Change from Baseline, Mean [10]: −38.89% | Weekly Symptomatic RP Attacks Percent Change from Baseline, Median [10]: −38.89% | Weekly Symptomatic RP Attacks, Mean [10]: 9.50 | Weekly Symptomatic RP Attacks, Median [10]: 9.50 | Weekly Symptomatic RP Attacks Change from Baseline, Mean [11]: −0.50 | Weekly Symptomatic RP Attacks Change from Baseline, Median [11]: −0.50 | Weekly Symptomatic RP Attacks Percent Change from Baseline, Mean [11]: −4.76% | Weekly Symptomatic RP Attacks Percent Change from Baseline, Median [11]: −4.76% | Weekly Symptomatic RP Attacks, Mean [11]: 10.00 | Weekly Symptomatic RP Attacks, Median [11]: 10.00 | Weekly Symptomatic RP Attacks Change from Baseline, Mean [12]: −4.67 | Weekly Symptomatic RP Attacks Change from Baseline, Median [12]: −5.00 | Weekly Symptomatic RP Attacks Percent Change from Baseline, Mean [12]: −31.75% | Weekly Symptomatic RP Attacks Percent Change from Baseline, Median [12]: −28.57% | Weekly Symptomatic RP Attacks, Mean [12]: 9.67 | Weekly Symptomatic RP Attacks, Median [12]: 11.00 | Weekly Symptomatic RP Attacks Change from Baseline, Mean [13]: −3.63 | Weekly Symptomatic RP Attacks Change from Baseline, Median [13]: −3.50 | Weekly Symptomatic RP Attacks Percent Change from Baseline, Mean [13]: −25.00% | Weekly Symptomatic RP Attacks Percent Change from Baseline, Median [13]: −28.17% | Weekly Symptomatic RP Attacks, Mean [13]: 9.75 | Weekly Symptomatic RP Attacks, Median [13]: 10.50 | Weekly Symptomatic RP Attacks Change from Baseline, Mean [14]: −3.63 | Weekly Symptomatic RP Attacks Change from Baseline, Median [14]: −3.50 | Weekly Symptomatic RP Attacks Percent Change from Baseline, Mean [14]: −25.00% | Weekly Symptomatic RP Attacks Percent Change from Baseline, Median [14]: −28.17% | Weekly Symptomatic RP Attacks, Mean [14]: 9.75 | Weekly Symptomatic RP Attacks, Median [14]: 10.50 | Weekly Symptomatic RP Attacks Change from Baseline, Mean [15]: −0.50 | Weekly Symptomatic RP Attacks Change from Baseline, Median [15]: −0.50 | Weekly Symptomatic RP Attacks Percent Change from Baseline, Mean [15]: −4.76% | Weekly Symptomatic RP Attacks Percent Change from Baseline, Median [15]: −4.76% | Weekly Symptomatic RP Attacks, Mean [15]: 10.00 | Weekly Symptomatic RP Attacks, Median [15]: 10.00 | Weekly Symptomatic RP Attacks Change from Baseline, Mean [16]: −4.67 | Weekly Symptomatic RP Attacks Change from Baseline, Median [16]: −5.00 | Weekly Symptomatic RP Attacks Percent Change from Baseline, Mean [16]: −31.75% | Weekly Symptomatic RP Attacks Percent Change from Baseline, Median [16]: −28.57% | Weekly Symptomatic RP Attacks, Mean [16]: 9.67 | Weekly Symptomatic RP Attacks, Median [16]: 11.00 | Weekly Symptomatic RP Attacks Change from Baseline, Mean [17]: −5.33 | Weekly Symptomatic RP Attacks Change from Baseline, Median [17]: −7.00 | Weekly Symptomatic RP Attacks Percent Change from Baseline, Mean [17]: −33.60% | Weekly Symptomatic RP Attacks Percent Change from Baseline, Median [17]: −33.33% | Weekly Symptomatic RP Attacks, Mean [17]: 10.00 | Weekly Symptomatic RP Attacks, Median [17]: 11.00 | Weekly Symptomatic RP Attacks Change from Baseline, Mean [18]: −5.33 | Weekly Symptomatic RP Attacks Change from Baseline, Median [18]: −7.00 | Weekly Symptomatic RP Attacks Percent Change from Baseline, Mean [18]: −33.60% | Weekly Symptomatic RP Attacks Percent Change from Baseline, Median [18]: −33.33% | Weekly Symptomatic RP Attacks, Mean [18]: 10.00 | Weekly Symptomatic RP Attacks, Median [18]: 11.00 | Weekly Symptomatic RP Attacks Change from Baseline, Mean [19]: −5.33 | Weekly Symptomatic RP Attacks Change from Baseline, Median [19]: −7.00 | Weekly Symptomatic RP Attacks Percent Change from Baseline, Mean [19]: −33.60% | Weekly Symptomatic RP Attacks Percent Change from Baseline, Median [19]: −33.33% | Weekly Symptomatic RP Attacks, Mean [19]: 10.00 | Weekly Symptomatic RP Attacks, Median [19]: 11.00 | Weekly Symptomatic RP Attacks Change from Baseline, Mean [20]: −5.33 | Weekly Symptomatic RP Attacks Change from Baseline, Median [20]: −7.00 | Weekly Symptomatic RP Attacks Percent Change from Baseline, Mean [20]: −33.60% | Weekly Symptomatic RP Attacks Percent Change from Baseline, Median [20]: −33.33% | Weekly Symptomatic RP Attacks, Mean [20]: 10.00 | Weekly Symptomatic RP Attacks, Median [20]: 11.00 | Weekly Symptomatic RP Attacks Change from Baseline, Mean [21]: −7.00 | Weekly Symptomatic RP Attacks Change from Baseline, Median [21]: −7.00 | Weekly Symptomatic RP Attacks Percent Change from Baseline, Mean [21]: −33.33% | Weekly Symptomatic RP Attacks Percent Change from Baseline, Median [21]: −33.33% | Weekly Symptomatic RP Attacks, Mean [21]: 14.00 | Weekly Symptomatic RP Attacks, Median [21]: 14.00 | Weekly Symptomatic RP Attacks Change from Baseline, Mean [22]: −4.50 | Weekly Symptomatic RP Attacks Change from Baseline, Median [22]: −4.50 | Weekly Symptomatic RP Attacks Percent Change from Baseline, Mean [22]: −33.73% | Weekly Symptomatic RP Attacks Percent Change from Baseline, Median [22]: −33.73% | Weekly Symptomatic RP Attacks, Mean [22]: 8.00 | Weekly Symptomatic RP Attacks, Median [22]: 8.00
